Reference: patent publication US4661516A, “Diaminocyclohexane platinum complexes” (Research Corporation, priority 1984, dated 1987)

Tests used:
[1] = tested on: Wild type L1210 leukemic cells; assay: In vitro cytotoxicity, wild type L1210 leukemic cells (L1210/0); type: cell-based; settings: for ID50 L1210/0: L1210/0, protocol of Example 14, Tables VII and VIII, 4320 min
Experimental: Four ml of cell suspension (10^5 cells/ml) are added to culture tubes and the appropriate concentration (0.01, 0.1, 1 or 10 μg/ml final concentration) of drug added to the culture tubes. After 72 hours of incubation, the cell concentration of control and experimental cultures are determined with the aid of a Coulter Counter® Model ZBf and the percent inhibition calculated. […]

[2] = tested on: L1210 leukemia cells (L1210/PDD); assay: In vitro cytotoxicity / cross-resistance, L1210/PDD (L1210/DDP) cells resistant to cisdiamminedichloroplatinum(II); type: cell-based; settings: for ID50 L1210/DDP: Tables VII and VIII, 5760 min
Experimental: Four ml of cell suspension were added to culture tubes and the appropriate concentration (0.01, 0.1, 1 or 10 μg/ml final drug concentration) was added. After 96 hours the cell concentration of control and experimental cultures were calculated with the aid of a Coulter Counter® Model ZBf and the percent inhibition calculated.

[3] = tested on: L1210/0 leukemia cells; assay: In vivo anti-tumor activity, L1210 (L1210/0), multiple i.p. doses; set-up: species or system BDF1 mice; settings: for Maximal Effective Dose: i.p. on days 1, 5 and 9
Experimental: BDF1 mice were inoculated intraperitoneally with 10^6 L1210 cells. About 24 hours after inoculation of the cells, the mice were injected intraperitoneally with varying dosages of complexes of the present invention. Six mice were used for each dosage level in each experiment with an equal number of control mice inoculated with 10^6 L1210 cells and left untreated with a given complex. The results [%T/C=(survival time of treated animals/survival time of control animals)×100] are set forth below. Long term survival signifies that animals were alive 60 days after inoculation with L1210 cells.
The procedure of Example 16 was repeated except that the treated animals were injected with multiple doses of the complex as indicated below:
The anti-tumor activity of compound number 3 was evaluated against cells sensitive to (L1210/0) and resistant to (L1210/PDD) the standard platinum complex cis-diamminedichloroplatinum(II).
The following complexes were tested in vivo oncolytic activity following 3 i.p. injections (days 1, 5, 9) according to the protocol described in Examples 16 and 17.
BDF1 mice were innoculated intraperitoreally with 10^6 L1210 leukemia cells and treatment was begun on the next day (day 1). Two treatment schedules, i.e. single i.p. injection of the drug and i.p. injections on days 1, 5 and 9 according to the protocol described in Examples 16 and 17 were used.

[4] = tested on: B16 cells; assay: Melanotic melanoma test, i.p. inoculated B16 melanoma; type: in vivo, BDF1 mice; settings: for Maximal Effective Dose: B16, i.p. days 1, 5 and 9; for % T/C / Long Term Survivors: B16, i.p. days 1, 5 and 9, at maximal effective dose; for Long Term Survivors: 60 days
Experimental: The animals used were BDF1 mice, all of the same sex, weighing a minimum of 18 g. and all within a 4 g. weight range. There were 6 animals per test group. […] The test compounds were administered intraperitoneally on days 1, 5 and 9 at various doses. The animals were weighed and survivors were recorded on a regular basis for 60 days. The median survival time and the ratio of survival time for treated (T)/control (C) animals were calculated. […] The criterion for efficacy is T/C×100≥125%.

[5] = tested on: L1210 cells; assay: In vivo anti-tumor activity, L1210, single i.p. injection; set-up: species or system BDF1 mice; settings: single i.p.
Experimental: About 24 hours after inoculation of the cells, the mice were injected intraperitoneally with varying dosages of complexes of the present invention. […] Long term survival signifies that animals were alive 60 days after inoculation with L1210 cells.

[6] = tested on: Male albino mice; assay: Acute toxicity, single intraperitoneal injection (Example 19); type: in vivo; settings: single i.p.
Experimental: Fourteen days after treatment all surviving mice were sacrified and the LD10, LD50 and LD90 were calculated.

[7] = Tables X and XI, days 1, 5 and 9, at maximal effective dose, alive 60 days after tumor inoculation
[8] = Tables X and XI, i.p. on days 1, 5 and 9, at maximal effective dose

Row | Molecule | ID50 L1210/0 [1] | ID50 L1210/DDP [2] | Long Term Survivors [3, 7] | Maximal Effective Dose ([3]; Tables X and XI) | % T/C [3, 8] | Maximal Effective Dose [4] | % T/C [4] | Long Term Survivors [4] | further results
1 | CN(CC(=O)[O-])CC(=O)[O-].N[C@@H]1CCCC[C@H]1N.[Pt+2] [Identifier No. 11a, mono-N--methyliminodiacetato] | 0.8 µg/mL | 1.9 µg/mL | 6/6 | 6.25 mg/kg | 700% | 25 mg/kg | 210% | 2/6 | 
2 | N[C@@H]1CCCC[C@H]1N.O=C([O-])CN(CCO)CC(=O)[O-].[Pt+2] [Identifier No. 12a, mono-N--hydroxyethyliminodiacetato] | 1.4 µg/mL | 1.8 µg/mL | 2/6 | 6.25 mg/kg | 384% | 25 mg/kg | 265% | 4/6 | 
3 | cis-bis-D-monosaccharato(DACH)Pt(II).3H2 O [Compound 8] |  |  |  |  |  |  |  |  | ID50 ([1]; L1210, 72 hours incubation): 2.8 µg/mL; ID50 L1210/PDD ([2]; L1210/PDD, 96 hours): 0.9 µg/mL; % T/C ([5]; 12.5 mg/kg): 120%; % T/C ([5]; 25 mg/kg): 129%; % T/C ([5]; 50 mg/kg): 156%; % T/C ([5]; 100 mg/kg): 151%; % T/C ([5]; 200 mg/kg): Toxic; % T/C ([3]; 25 mg/kg, days 1,5,9): 206%; % T/C ([3]; 50 mg/kg, days 1,5,9): 225%; Long Term Survivors ([3]; 50 mg/kg, days 1,5,9): 1/6; DEATHS/TREATED ([6]; 100 mg/kg): 1/6; DEATHS/TREATED ([6]; 125 mg/kg): 1/6; DEATHS/TREATED ([6]; 158 mg/kg): 4/6; DEATHS/TREATED ([6]; 200 mg/kg): 3/6; DEATHS/TREATED ([6]; 250 mg/kg): 6/6; Calculated LD10 ([6]; 14 days): 115 mg/kg; Calculated LD50 ([6]; 14 days): 155 mg/kg; Calculated LD90 ([6]; 14 days): 220 mg/kg
4 | mono-N--benzyliminodiacetato [Identifier No. 15a] | 1.0 µg/mL | 2.4 µg/mL | 4/6 | 6.25 mg/kg | 620% | 12.5 mg/kg | 252% | 3/6 | 
5 | mono-N--phenyliminodiacetato [Identifier No. 14a] | 0.7 µg/mL | 0.6 µg/mL | 4/6 | 6.25 mg/kg | 578% | 25 mg/kg | 160% | 3/6 | 
